Measurements reported in ChEMBL document CHEMBL5226286, “The application of isatin-based multicomponent-reactions in the quest for new bioactive and druglike molecules” (Eur J Med Chem, 2021).
≈ marks a conversion by molar mass, not a printed value.

Tests used:
[1] = test system: MCF7; experiment: Antiproliferative activity against human MCF7 cells by MTT reduction assay; format: functional, cell-based
[2] = test system: T47D; experiment: Antiproliferative activity against human T47D cells by MTT reduction assay; format: functional, cell-based
[3] = test system: MDA-MB-231; experiment: Antiproliferative activity against human MDA-MB-231 cells by MTT reduction assay; format: functional, cell-based
[4] = test system: Aspergillus fumigatus; experiment: Antifungal activity against Aspergillus fumigatus RCMB 02568 assessed as zone of inhibition; format: functional
[5] = test system: Syncephalastrum racemosum; experiment: Antifungal activity against Syncephalastrum racemosum RCMB 05922 assessed as zone of inhibition; format: functional
[6] = test system: Geotrichum candidum; experiment: Antifungal activity against Geotrichum candidum RCMB 05097 assessed as zone of inhibition; format: functional
[7] = test system: Candida albicans; experiment: Antifungal activity against Candida albicans RCMB 05036 assessed as zone of inhibition; format: functional
[8] = test system: Pseudomonas aeruginosa; experiment: Antibacterial activity against multidrug resistant Pseudomonas aeruginosa 025; format: functional
[9] = test system: Pseudomonas aeruginosa; experiment: Antibacterial activity against multidrug resistant Pseudomonas aeruginosa 034; format: functional
[10] = test system: A549; experiment: Anticancer activity against human A549 cells by MTT assay; format: functional, cell-based
[11] = test system: K562; experiment: Anticancer activity against human K562 cells by MTT assay; format: functional, cell-based
[12] = test system: PC-3; experiment: Antiproliferative activity against human PC-3 cells; format: functional, cell-based
[13] = test system: LNCaP; experiment: Antiproliferative activity against human LNCaP cells; format: functional, cell-based
[14] = test system: Aspergillus niger; experiment: Antifungal activity against Aspergillus niger assessed as zone of inhibition at 25 ug/ml; format: functional; conditions: read-out: DIZ
[15] = test system: Candida metapsilosis; experiment: Antifungal activity against Candida metapsilosis assessed as zone of inhibition at 25 ug/ml; format: functional; conditions: Lodderomyces metapsilosis, read-out: DIZ
[16] = test system: Escherichia coli; experiment: Antibacterial activity against Escherichia coli assessed as zone of inhibition; format: functional
[17] = test system: Staphylococcus aureus; experiment: Antibacterial activity against Staphylococcus aureus assessed as zone of inhibition; format: functional
[18] = test system: Bacillus subtilis; experiment: Antibacterial activity against Bacillus subtilis; format: functional
[19] = test system: Staphylococcus aureus; experiment: microbe, parasite or virus in culture
[20] = test system: ECa-109 cell line; experiment: Antiproliferative activity against human EC109 cells; format: functional, cell-based
[21] = test system: SMMC-7721; experiment: Antiproliferative activity against human SMMC-7721 cells; format: functional, cell-based
[22] = test system: MGC-803; experiment: Antiproliferative activity against human MGC-803 cells; format: functional, cell-based
[23] = molecular target: Acetylcholinesterase (Homo sapiens, UniProt P22303); experiment: Inhibition of AChE (unknown origin)
[24] = molecular target: Cholinesterase (Homo sapiens, UniProt P06276); experiment: Inhibition of BChE (unknown origin)
[25] = test system: Bacillus subtilis; experiment: Antibacterial activity against Bacillus subtilis by agar well diffusion method; format: functional
[26] = test system: Staphylococcus aureus; experiment: Antibacterial activity against Staphylococcus aureus by disc diffusion method; format: functional
[27] = test system: Escherichia coli; experiment: Antibacterial activity against Escherichia coli by disc diffusion method; format: functional
[28] = test system: Candida albicans; experiment: Antifungal activity against Candida albicans; format: functional
[29] = test system: Candida tropicalis; experiment: Antifungal activity against Candida tropicalis; format: functional
[30] = test system: Nakaseomyces glabratus; experiment: Antifungal activity against Candida glabrata; format: functional
[31] = test system: Salmonella sp.; experiment: Antibacterial activity against Salmonella sp. NCIM 2501 by microdilution broth method; format: functional
[32] = test system: Proteus vulgaris; experiment: Antibacterial activity against Proteus vulgaris NCIM 2813 by microdilution broth method; format: functional
[33] = test system: Pseudomonas aeruginosa; experiment: Antibacterial activity against Pseudomonas aeruginosa NCIM 5029 by microdilution broth method; format: functional
[34] = test system: Escherichia coli; experiment: Antibacterial activity against Escherichia coli NCIM 2931 by microdilution broth method; format: functional
[35] = test system: Staphylococcus aureus; experiment: Antibacterial activity against Staphylococcus aureus NCIM5021 by microdilution broth method; format: functional

Chain of Cholinesterase (P06276 whole entry, the tested form may be a part): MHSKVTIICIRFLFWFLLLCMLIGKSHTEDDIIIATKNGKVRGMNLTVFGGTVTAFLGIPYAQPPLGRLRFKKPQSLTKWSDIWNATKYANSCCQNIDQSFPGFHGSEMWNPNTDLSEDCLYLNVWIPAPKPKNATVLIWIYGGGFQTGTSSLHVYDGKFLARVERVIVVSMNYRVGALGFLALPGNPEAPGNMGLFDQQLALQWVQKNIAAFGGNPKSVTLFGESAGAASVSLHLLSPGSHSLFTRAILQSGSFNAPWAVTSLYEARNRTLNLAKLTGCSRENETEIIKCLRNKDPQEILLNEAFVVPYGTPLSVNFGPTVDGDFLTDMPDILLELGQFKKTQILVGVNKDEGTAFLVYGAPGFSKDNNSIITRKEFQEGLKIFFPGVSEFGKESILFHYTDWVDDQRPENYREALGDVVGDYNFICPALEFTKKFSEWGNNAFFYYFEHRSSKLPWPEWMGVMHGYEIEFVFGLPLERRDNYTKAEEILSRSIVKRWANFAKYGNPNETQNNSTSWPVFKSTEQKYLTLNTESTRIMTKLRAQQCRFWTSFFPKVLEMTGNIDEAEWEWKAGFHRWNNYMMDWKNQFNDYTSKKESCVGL
Chain of Acetylcholinesterase (P22303 whole entry): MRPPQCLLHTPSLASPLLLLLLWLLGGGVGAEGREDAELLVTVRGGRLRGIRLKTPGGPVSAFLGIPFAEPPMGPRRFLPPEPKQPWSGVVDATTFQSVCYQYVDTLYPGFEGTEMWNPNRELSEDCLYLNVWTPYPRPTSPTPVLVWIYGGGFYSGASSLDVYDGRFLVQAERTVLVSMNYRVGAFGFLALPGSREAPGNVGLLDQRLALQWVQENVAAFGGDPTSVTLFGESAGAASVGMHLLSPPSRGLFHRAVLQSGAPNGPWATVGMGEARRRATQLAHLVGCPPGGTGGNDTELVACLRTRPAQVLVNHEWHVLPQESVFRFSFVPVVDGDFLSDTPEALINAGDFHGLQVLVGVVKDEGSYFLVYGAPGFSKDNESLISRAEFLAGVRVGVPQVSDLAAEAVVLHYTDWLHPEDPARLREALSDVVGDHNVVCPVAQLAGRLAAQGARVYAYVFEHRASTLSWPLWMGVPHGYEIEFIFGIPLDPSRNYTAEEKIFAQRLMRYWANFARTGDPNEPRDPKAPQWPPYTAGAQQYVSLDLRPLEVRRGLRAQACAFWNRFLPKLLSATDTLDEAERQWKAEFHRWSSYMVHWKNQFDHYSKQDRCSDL

O=C(c1ccc(OCCN2CCC2)cc1)[C@H]1[C@H](c2ccccc2)C2CS[C@H](c3ccccc3)N2C12C(=O)Nc1ccc(Cl)cc12 (stereo partly drawn)
IC50 [1]: 3.7 µM
IC50 [2]: 4.7 µM
IC50 [3]: 4.2 µM

O=C1NC(=S)S[C@]12C1CCCN1[C@@]1(C(=O)Nc3ccccc31)[C@H]2c1ccccc1 (stereo partly drawn)
diameter of the inhibition zone (DIZ) [4]: 16 mm
diameter of the inhibition zone (DIZ) [5]: 14 mm
diameter of the inhibition zone (DIZ) [6]: 24 mm
diameter of the inhibition zone (DIZ) [7]: 25 mm

C[C@H]1COc2c(N3CCN(C)CC3)c(F)cc3c(=O)c(C(=O)O)cn1c23.C[C@H]1COc2c(N3CCN(C)CC3)c(F)cc3c(=O)c(C(=O)O)cn1c23.O [LEVOFLOXACIN]
MIC [8]: > 64 µg/mL
MIC [9]: > 64 µg/mL

CC(C)=CC(=O)[C@H]1[C@H](c2ccc(F)cc2)CN(C)[C@]12C(=O)N(C)c1ccccc12
IC50 [10]: 19.1 µM
IC50 [11]: 7.2 µM

CC(O)(CS(=O)(=O)c1ccc(F)cc1)C(=O)Nc1ccc(C#N)c(C(F)(F)F)c1 (stereo not drawn) [BICALUTAMIDE]
IC50 [12]: 1.3 µM
IC50 [13]: 1.5 µM

CCOC1=Nc2ccccc2/C1=C\C(=O)c1ccc([N+](=O)[O-])cc1
zone of inhibition at 25 µg/mL [14]: 11 mm
zone of inhibition at 25 µg/mL [15]: 11 mm

CCOC1=Nc2ccc(Br)cc2/C1=C\C(=O)c1ccccc1
diameter of the inhibition zone (DIZ) [16]: 6 mm
diameter of the inhibition zone (DIZ) [17]: 7 mm

Cc1nn(-c2ccccc2)c2c1C1(C(=O)Nc3ccc(Br)cc31)c1c(C)nn(-c3ccccc3)c1O2
MIC [18]: 256 µg/mL (≈ 475 µM)
MIC [19]: 64 µg/mL (≈ 119 µM)

O=C1c2ccccc2C2Oc3c(c(=O)oc4ccccc34)C3(C(=O)N(c4ccc(Cl)cc4)c4ccccc43)C12 (stereo not drawn)
IC50 [12]: 0.08 µM
IC50 [13]: 1.3 µM

CC(C)=CC(=O)[C@H]1[C@H](c2ccc(Br)cc2)CN(C)[C@]12C(=O)Nc1ccc(Br)cc12
IC50 [10]: 22.9 µM
IC50 [11]: 5.7 µM

C[C@]12CC[C@H](O)CC1=CCC1C2CC[C@@]2(C)C1CC[C@@H]2C1=CC2(C(=O)Nc3ccc(Cl)cc32)C(C#N)=C(N)N1 (stereo partly drawn)
IC50 [20]: 3.8 µM
IC50 [21]: 9.6 µM
IC50 [22]: 4.2 µM

COc1cccc([C@@H]2[C@H](Cc3c[nH]c4ccccc34)NC3(C(=O)Nc4ccccc43)[C@@]23Cc2cc(OC)c(OC)cc2C3=O)c1 (stereo partly drawn)
IC50 [23]: 2.31 µM
IC50 [24]: 8.32 µM

O=C(O)c1cn(C2CC2)c2cc(N3CCNCC3)c(F)cc2c1=O [CIPROFLOXACIN]
MIC [8]: 32 µg/mL (≈ 96.6 µM)
MIC [9]: 32 µg/mL (≈ 96.6 µM)
MIC [25]: 6.25 µg/mL (≈ 18.9 µM)
MIC [26]: 50 µg/mL (≈ 151 µM)
MIC [27]: 25 µg/mL (≈ 75.4 µM)

COc1ccccc1C1C2CCCN2C2(C(=O)Nc3ccccc32)C1C(=O)c1ccc(-c2ccc(F)cc2F)cc1 (stereo not drawn)
MIC [28]: 12.5 µg/mL (≈ 22.7 µM)
MIC [29]: 12.5 µg/mL (≈ 22.7 µM)
MIC [30]: 12.5 µg/mL (≈ 22.7 µM)

O=C(c1ccc(-c2ccc(F)cc2F)cc1)C1C(c2ccc(Cl)cc2)C2CCCN2C12C(=O)Nc1ccccc12 (stereo not drawn)
MIC [28]: 12.5 µg/mL (≈ 22.5 µM)
MIC [29]: 25 µg/mL (≈ 45 µM)
MIC [30]: 25 µg/mL (≈ 45 µM)

COc1cc2c(cc1OC)C(=O)[C@]1(C2)[C@H](c2ccccc2OC)[C@H](Cc2c[nH]c3ccccc23)NC12C(=O)Nc1ccccc12 (stereo partly drawn)
IC50 [23]: 2.76 µM
IC50 [24]: 24 µM

CCOC1=Nc2ccccc2/C1=C\C(=O)c1ccccc1O
zone of inhibition at 25 µg/mL [14]: 10 mm
zone of inhibition at 25 µg/mL [15]: 11 mm

Cc1ccc(C2C3CCCN3C3(C(=O)Nc4ccccc43)C2C(=O)c2ccc(-c3ccc(F)cc3F)cc2)cc1 (stereo not drawn)
MIC [28]: 12.5 µg/mL (≈ 23.4 µM)
MIC [29]: 25 µg/mL (≈ 46.8 µM)
MIC [30]: 25 µg/mL (≈ 46.8 µM)

O=C1Nc2ccccc2[C@@]1(O)[C@@]1(OCc2ccc(Cl)cc2)C(=O)Nc2ccccc21
MIC [31]: 0.074 µg/mL (≈ 0.176 µM)
MIC [32]: 0.149 µg/mL (≈ 0.354 µM)
MIC [33]: 0.074 µg/mL (≈ 0.176 µM)
MIC [34]: 0.074 µg/mL (≈ 0.176 µM)
MIC [35]: 0.149 µg/mL (≈ 0.354 µM)

COc1cc2c(cc1OC)C(=O)[C@]1(C2)[C@H](c2ccc(C)cc2)[C@H](Cc2c[nH]c3ccccc23)NC12C(=O)Nc1ccccc12 (stereo partly drawn)
IC50 [23]: 14.2 µM
IC50 [24]: 2.24 µM
